The text below walks through data of ChEMBL document CHEMBL4359837, “Discovery of 2-(4-Chloro-3-(trifluoromethyl)phenyl)-N-(4-((6,7-dimethoxyquinolin-4-yl)oxy)phenyl)acetamide (CHMFL-KIT-64) as a Novel Orally Available Potent Inhibitor against Broad-Spectrum Mutants of c-KIT Kinase for Gastrointestinal Stromal Tumors” (J Med Chem, 2019).

Data set [1] relates to Homo sapiens. Type of data set: functional. To be noted: 20 mg/kg.
Data set [2] concerns the target Platelet-derived growth factor receptor alpha (Mus musculus) (UniProt P26618). Put plainly: Inhibition of PDGFRA in mouse BAF3(transformed) cells assessed as growth inhibition after 72 hrs by CCK8 assay.
Data set [3] concerns Mus musculus. Format: functional, organism-based. The note with it: BALB/c, 80 mg/kg.
Data set [4] relates to Mast/stem cell growth factor receptor Kit (Homo sapiens), P10721 [V654A]. The note with it: Mus musculus.
Description: Inhibition of c-KIT V654A mutant in mouse BAF3(transformed) cells assessed as growth inhibition after 72 hrs by CCK8 assay
The nature of data set [5]: AUC (0 to t) in Beagle dog at 5 mg/kg, po by LC-MS/MS analysis. Type of data set: ADME, organism-based, Canis lupus familiaris. The note with it: in vivo.
The nature of data set [6]: Oral bioavailability in Beagle dog at 5 mg/kg by LC-MS/MS analysis. Format: ADME, organism-based, Canis lupus familiaris. The note with it: in vivo.
The target in data set [7] is T1, Mast/stem cell growth factor receptor Kit (Homo sapiens, UniProt P10721, 560-578DEL). Format: cell-based, GISTT1.
Data set [8] is filed under the species Homo sapiens. Type of data set: functional, cell-based.
The target of data set [9] is T2, Mast/stem cell growth factor receptor Kit (Homo sapiens, UniProt P10721, 560-578DEL/T670I). Format: cell-based, GISTT1.
Data set [10] addresses T2, Mast/stem cell growth factor receptor Kit.
Data set [11] can be described thus: AUC (0 to t) in Beagle dog at 1 mg/kg, iv by LC-MS/MS analysis. Type of data set: ADME, organism-based, Canis lupus familiaris. To be noted: in vivo.
Data set [12] has as its target T2, Mast/stem cell growth factor receptor Kit. Format: cell-based, GISTT1. The source holds these as a separate data set.
A short description of data set [13]: Toxicity in BALB/c nu mouse implanted with mouse BAF3(transformed) cells harboring c-KIT T670I mutant assessed as change in body weight at 40 to 100 mg/kg/day, po administered via gavage for 11 days measured daily during compound dosing. Type of data set: organism-based. The note with it: in vivo, 264 h.
The nature of data set [14]: Cmax in Beagle dog at 5 mg/kg, po by LC-MS/MS analysis. Format: ADME, organism-based, Canis lupus familiaris. Details: dose 5 mg/kg, route oral. To be noted: in vivo.
In data set [15] the test system is Mus musculus. Type of data set: functional, organism-based. To be noted: BALB/c, 80 mg/kg, TDE = time-dependent effect.
Data set [16] relates to Mast/stem cell growth factor receptor Kit (Homo sapiens), P10721 [UNDEFINED MUTATION]. The note with it: GISTT1.
Description: Inhibition of c-KIT 560 to 578 deletion mutant in human GISTT1 cells assessed as growth inhibition after 72 hrs by CCK8 assay
Data set [17] relates to GISTT1. Format: functional, cell-based. The note with it: Homo sapiens.
Data set [18] can be described thus: Half life in Beagle dog at 5 mg/kg, po by LC-MS/MS analysis. Type of data set: ADME, organism-based, Canis lupus familiaris. The note with it: in vivo.
Data set [19] has as its target T3, Platelet-derived growth factor receptor alpha (Homo sapiens, UniProt P16234). Format: cell-based. The note with it: GISTT1.
Data set [20] concerns the target T2, Mast/stem cell growth factor receptor Kit. Type of data set: cell-based, GISTT1. This is another data set of the same source.
The test system of data set [21] is Mast/stem cell growth factor receptor Kit (Homo sapiens), P10721 [V559A]. The note with it: Mus musculus.
Description: Inhibition of c-KIT V559A mutant in mouse BAF3(transformed) cells assessed as growth inhibition after 72 hrs by CCK8 assay
In data set [22] the target is T3, Platelet-derived growth factor receptor alpha. Briefly: Inhibition of recombinant human GST-tagged PDGFRA cytoplasmic domain (550 to 1089 residues) expressed in baculovirus expression system by Z-lyte assay.
Data set [23] can be described thus: Tmax in Beagle dog at 1 mg/kg, iv by LC-MS/MS analysis. Type of data set: ADME, organism-based, Canis lupus familiaris. To be noted: in vivo.
Data set [24] relates to GISTT1. Format: functional, cell-based. To be noted: Homo sapiens. This is another data set of the same source.
Data set [25] addresses T1, Mast/stem cell growth factor receptor Kit. Type of data set: cell-based, GISTT1. This is another data set of the same source.
In data set [26] the target is Macrophage colony-stimulating factor 1 receptor (Homo sapiens, UniProt P07333). Put plainly: Inhibition of recombinant human His-tagged CSF1R cytoplasmic domain (538 to 910 residues) expressed in baculovirus expression system by Z-lyte assay.
Data set [27] concerns GISTT1. Type of data set: functional, Homo sapiens. To be noted: Mus musculus, GISTT1, po, 672 h; read-out: TGI.
The subject of data set [28] is Mast/stem cell growth factor receptor Kit (Homo sapiens), P10721 [UNDEFINED MUTATION]. The note with it: GISTT1, 0.1 uM.
Description: Inhibition of c-KIT 560 to 578 deletion/T670I mutant in human GISTT1 cells assessed as reduction in ERK phosphorylation at T204 residue at 0.1 uM measured after 2 hrs by Western blot analysis
The test system is the same in data set [29]. To be noted: 0.1 uM.
Description: Inhibition of c-KIT 560 to 578 deletion/T670I mutant in human GIST5R assessed as reduction in ERK phosphorylation at T204 residue at 0.1 uM measured after 2 hrs by Western blot analysis
Data set [30] shares this test system. To be noted: 0.1 uM. This is another data set of the same source.
Description: Inhibition of c-KIT 560 to 578 deletion/T670I mutant in human GIST5R assessed as reduction in AKT phosphorylation at T308 residue at 0.1 uM measured after 2 hrs by Western blot analysis
For data set [31] the test system is unchanged. To be noted: 0.1 uM. This is another data set of the same source.
Description: Inhibition of c-KIT 560 to 578 deletion/T670I mutant in human GIST5R assessed as reduction in pS6 phosphorylation at S235 residue at 0.1 uM measured after 2 hrs by Western blot analysis
Data set [32] shares this test system. The note with it: GISTT1, 0.1 uM. The source holds these as a separate data set.
Description: Inhibition of c-KIT 560 to 578 deletion mutant in human GISTT1 cells assessed as reduction in pS6 phosphorylation at S235 residue at 0.1 uM measured after 2 hrs by Western blot analysis
The test system is the same in data set [33]. The note with it: GISTT1, 0.1 uM. The source holds these as a separate data set.
Description: Inhibition of c-KIT 560 to 578 deletion/T670I mutant in human GISTT1 cells assessed as reduction in pS6 phosphorylation at S236 residue at 0.1 uM measured after 2 hrs by Western blot analysis
Data set [34] has the same test system. To be noted: 0.1 uM. The source holds these as a separate data set.
Description: Inhibition of c-KIT 560 to 578 deletion/T670I mutant in human GIST5R cells assessed as reduction in c-KIT autophosphorylation at Y719 residue at 0.1 uM measured after 2 hrs by Western blot analysis
Data set [35] has the same test system. To be noted: GISTT1, 0.1 uM. This is another data set of the same source.
Description: Inhibition of c-KIT 560 to 578 deletion mutant in human GISTT1 cells assessed as reduction in ERK phosphorylation at T204 residue at 0.1 uM measured after 2 hrs by Western blot analysis
Data set [36] has the same test system. To be noted: GISTT1, 0.1 uM. The source holds these as a separate data set.
Description: Inhibition of c-KIT 560 to 578 deletion/T670I mutant in human GISTT1 cells assessed as reduction in c-KIT autophosphorylation at Y703 residue at 0.1 uM measured after 2 hrs by Western blot analysis
Data set [37] has the same test system. The note with it: 0.1 uM. The source holds these as a separate data set.
Description: Inhibition of c-KIT 560 to 578 deletion/T670I mutant in human GIST5R assessed as reduction in ERK phosphorylation at T202 residue at 0.1 uM measured after 2 hrs by Western blot analysis
Data set [38] has the same test system. To be noted: 0.1 uM. The source holds these as a separate data set.
Description: Inhibition of c-KIT 560 to 578 deletion/T670I mutant in human GIST5R cells assessed as reduction in c-KIT autophosphorylation at Y703 residue at 0.1 uM measured after 2 hrs by Western blot analysis

The source made the active and inactive calls.

Sequence of Mast/stem cell growth factor receptor Kit (Homo sapiens), P10721 [UNDEFINED MUTATION] (P10721 whole entry, looked up, change not shown): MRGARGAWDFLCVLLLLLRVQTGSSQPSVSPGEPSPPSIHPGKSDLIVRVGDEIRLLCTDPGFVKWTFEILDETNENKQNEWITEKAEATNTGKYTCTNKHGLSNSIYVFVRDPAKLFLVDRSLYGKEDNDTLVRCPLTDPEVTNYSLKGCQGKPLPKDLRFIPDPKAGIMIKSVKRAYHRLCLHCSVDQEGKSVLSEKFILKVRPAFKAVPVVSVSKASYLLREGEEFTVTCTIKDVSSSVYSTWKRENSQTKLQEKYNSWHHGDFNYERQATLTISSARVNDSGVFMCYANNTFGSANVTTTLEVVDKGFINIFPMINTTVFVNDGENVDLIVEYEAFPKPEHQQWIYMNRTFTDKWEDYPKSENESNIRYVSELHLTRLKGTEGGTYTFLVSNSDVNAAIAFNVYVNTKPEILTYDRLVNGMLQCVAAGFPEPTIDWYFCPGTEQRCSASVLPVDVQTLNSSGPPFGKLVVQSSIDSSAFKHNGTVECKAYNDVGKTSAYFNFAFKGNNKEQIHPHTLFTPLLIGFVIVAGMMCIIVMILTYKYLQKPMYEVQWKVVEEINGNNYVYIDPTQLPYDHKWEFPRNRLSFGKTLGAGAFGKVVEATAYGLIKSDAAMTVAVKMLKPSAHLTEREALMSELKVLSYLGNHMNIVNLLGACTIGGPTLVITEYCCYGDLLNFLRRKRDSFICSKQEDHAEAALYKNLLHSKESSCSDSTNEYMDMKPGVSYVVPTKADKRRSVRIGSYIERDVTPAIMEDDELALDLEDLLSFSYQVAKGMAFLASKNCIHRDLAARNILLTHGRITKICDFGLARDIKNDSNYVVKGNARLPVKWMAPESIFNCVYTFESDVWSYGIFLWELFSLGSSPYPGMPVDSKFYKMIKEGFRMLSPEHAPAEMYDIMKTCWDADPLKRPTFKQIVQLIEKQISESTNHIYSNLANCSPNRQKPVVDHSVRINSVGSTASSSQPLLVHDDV
T2 sequence (P10721 whole entry, looked up, stated change not applied): as the sequence (P10721 whole entry, looked up, change not shown) above
T3 sequence (P16234 whole entry): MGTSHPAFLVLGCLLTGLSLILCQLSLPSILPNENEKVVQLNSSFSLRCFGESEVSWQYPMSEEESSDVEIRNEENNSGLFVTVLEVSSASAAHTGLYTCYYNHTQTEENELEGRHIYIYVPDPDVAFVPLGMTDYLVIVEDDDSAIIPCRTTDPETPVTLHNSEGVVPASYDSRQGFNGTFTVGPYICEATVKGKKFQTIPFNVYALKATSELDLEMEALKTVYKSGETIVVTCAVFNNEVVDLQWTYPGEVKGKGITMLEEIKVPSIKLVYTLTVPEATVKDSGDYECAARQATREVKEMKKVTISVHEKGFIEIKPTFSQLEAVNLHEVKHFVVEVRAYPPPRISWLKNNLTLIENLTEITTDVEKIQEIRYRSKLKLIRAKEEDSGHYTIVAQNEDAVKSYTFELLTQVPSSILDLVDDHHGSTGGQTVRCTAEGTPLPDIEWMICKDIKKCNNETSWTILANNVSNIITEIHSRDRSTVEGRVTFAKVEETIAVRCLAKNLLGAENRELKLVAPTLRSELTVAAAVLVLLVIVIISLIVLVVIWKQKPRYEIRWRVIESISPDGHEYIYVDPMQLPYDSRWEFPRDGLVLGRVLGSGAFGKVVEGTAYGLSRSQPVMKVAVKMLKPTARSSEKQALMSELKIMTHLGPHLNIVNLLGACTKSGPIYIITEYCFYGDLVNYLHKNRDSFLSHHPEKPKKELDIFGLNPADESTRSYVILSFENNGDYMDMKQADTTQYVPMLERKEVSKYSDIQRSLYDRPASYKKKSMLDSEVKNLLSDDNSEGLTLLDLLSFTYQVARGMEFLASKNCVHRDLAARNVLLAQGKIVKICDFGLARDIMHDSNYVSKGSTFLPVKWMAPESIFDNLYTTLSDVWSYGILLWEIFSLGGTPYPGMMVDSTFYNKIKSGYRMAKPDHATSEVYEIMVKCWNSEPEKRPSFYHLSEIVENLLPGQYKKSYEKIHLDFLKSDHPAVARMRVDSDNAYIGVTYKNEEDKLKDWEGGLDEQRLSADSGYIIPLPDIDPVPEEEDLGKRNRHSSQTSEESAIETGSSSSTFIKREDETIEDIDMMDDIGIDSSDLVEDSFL
T1 sequence (P10721 whole entry, looked up, stated change not applied): as the sequence (P10721 whole entry, looked up, change not shown) above
Sequence of Macrophage colony-stimulating factor 1 receptor (P07333 whole entry, the tested form may be a part): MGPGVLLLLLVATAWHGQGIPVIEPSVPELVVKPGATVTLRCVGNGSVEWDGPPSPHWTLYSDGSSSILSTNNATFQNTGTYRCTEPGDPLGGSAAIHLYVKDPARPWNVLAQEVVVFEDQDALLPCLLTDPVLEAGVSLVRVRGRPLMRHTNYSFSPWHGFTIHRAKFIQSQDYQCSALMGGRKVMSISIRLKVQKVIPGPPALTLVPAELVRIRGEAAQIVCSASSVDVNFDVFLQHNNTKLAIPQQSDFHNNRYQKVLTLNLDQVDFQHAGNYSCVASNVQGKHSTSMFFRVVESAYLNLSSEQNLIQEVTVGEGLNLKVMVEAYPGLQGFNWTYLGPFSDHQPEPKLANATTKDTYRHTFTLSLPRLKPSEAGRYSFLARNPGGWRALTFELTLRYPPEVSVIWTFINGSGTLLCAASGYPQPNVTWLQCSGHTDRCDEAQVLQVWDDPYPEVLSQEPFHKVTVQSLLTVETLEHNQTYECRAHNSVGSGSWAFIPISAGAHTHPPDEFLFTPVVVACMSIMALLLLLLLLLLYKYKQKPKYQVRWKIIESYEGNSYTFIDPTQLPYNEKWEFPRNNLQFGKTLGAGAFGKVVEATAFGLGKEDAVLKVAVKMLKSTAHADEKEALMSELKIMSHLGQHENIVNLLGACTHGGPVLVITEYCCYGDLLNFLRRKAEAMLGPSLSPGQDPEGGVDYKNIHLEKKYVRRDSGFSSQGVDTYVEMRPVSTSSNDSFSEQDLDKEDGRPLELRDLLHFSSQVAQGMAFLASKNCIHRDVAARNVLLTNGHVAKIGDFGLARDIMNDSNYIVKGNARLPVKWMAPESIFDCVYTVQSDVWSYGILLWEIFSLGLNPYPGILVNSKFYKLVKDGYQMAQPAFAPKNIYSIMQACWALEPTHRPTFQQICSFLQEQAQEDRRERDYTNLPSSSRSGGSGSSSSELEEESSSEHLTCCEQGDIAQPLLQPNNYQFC
Sequence of Platelet-derived growth factor receptor alpha (Mus musculus) (P26618 whole entry): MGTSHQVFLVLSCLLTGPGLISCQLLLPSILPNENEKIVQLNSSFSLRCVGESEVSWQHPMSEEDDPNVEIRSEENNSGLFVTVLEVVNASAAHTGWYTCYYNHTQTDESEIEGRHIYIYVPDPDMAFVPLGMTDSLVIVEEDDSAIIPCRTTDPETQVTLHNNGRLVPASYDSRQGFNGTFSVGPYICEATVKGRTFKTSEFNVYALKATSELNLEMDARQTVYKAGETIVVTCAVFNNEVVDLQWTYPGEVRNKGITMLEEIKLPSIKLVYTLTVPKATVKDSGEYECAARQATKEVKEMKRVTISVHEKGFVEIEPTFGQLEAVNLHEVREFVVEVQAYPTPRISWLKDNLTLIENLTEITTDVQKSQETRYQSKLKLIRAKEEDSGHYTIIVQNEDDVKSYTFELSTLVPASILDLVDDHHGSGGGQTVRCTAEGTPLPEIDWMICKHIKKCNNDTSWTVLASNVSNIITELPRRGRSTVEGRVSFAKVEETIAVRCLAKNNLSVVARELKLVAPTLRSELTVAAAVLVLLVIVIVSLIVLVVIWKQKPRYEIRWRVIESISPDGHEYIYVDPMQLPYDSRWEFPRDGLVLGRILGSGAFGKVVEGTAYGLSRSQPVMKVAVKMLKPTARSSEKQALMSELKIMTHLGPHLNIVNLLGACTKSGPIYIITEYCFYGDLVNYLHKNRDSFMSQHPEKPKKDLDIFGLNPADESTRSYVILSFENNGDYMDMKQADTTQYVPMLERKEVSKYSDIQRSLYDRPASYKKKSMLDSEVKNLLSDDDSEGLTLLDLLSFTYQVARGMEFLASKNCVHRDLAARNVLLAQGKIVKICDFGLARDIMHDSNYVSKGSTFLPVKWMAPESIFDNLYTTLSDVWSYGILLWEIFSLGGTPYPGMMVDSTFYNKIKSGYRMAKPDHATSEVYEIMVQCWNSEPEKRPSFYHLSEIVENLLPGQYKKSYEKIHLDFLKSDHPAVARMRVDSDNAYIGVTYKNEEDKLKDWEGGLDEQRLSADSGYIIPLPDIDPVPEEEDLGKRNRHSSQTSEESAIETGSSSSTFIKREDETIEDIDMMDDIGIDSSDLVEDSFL
Sequence of Mast/stem cell growth factor receptor Kit (Homo sapiens), P10721 [V559A] (P10721 whole entry V559A, the tested form may be a part): as the sequence (P10721 whole entry, looked up, change not shown) above, with V559A counted along it
Sequence of Mast/stem cell growth factor receptor Kit (Homo sapiens), P10721 [V654A] (P10721 whole entry V654A): as the sequence (P10721 whole entry, looked up, change not shown) above, with V654A counted along it

Take `COc1cc2nccc(Oc3ccc(NC(=O)Cc4ccc(Cl)c(C(F)(F)F)c4)cc3)c2cc1OC`: the TGI entry in the data set with Homo sapiens [1] and in the data set with GISTT1 [24] was “Dose-dependent effect” each time. The GI50 (in general, the concentration at which growth is held to half of that of the control) is 1 nM in data set [2], 320 nM in [4], 6 nM in [16] and 21 nM in data set [21]. Further, the inhibition entry with Mus musculus [3] is “inactive”. Moreover, the exposure AUC(0-t) (as a rule, the area under the concentration-time curve up to a stated or last time point) in data set [5] was determined as 19100 ng·h/mL; in data set [11], 5320 ng·h/mL. The bioavailability (as a rule, the share of a dose that reaches the circulation, judged against a reference dose that is usually intravenous) in [6] worked out at 81%. Further, the half-maximal effective concentration (EC50) in [7], in [9], in [10], in data set [12], in data set [20] and in data set [25] was < 100 nM each time. Besides, the Activity result in the data set listed under Homo sapiens [8] was “Dose-dependent effect”; in data set [13] it was “Non-Toxic”; in the data set with GISTT1 [17], “Dose-dependent effect”. Moreover, the concentration in data set [14] peaked (Cmax) at 1160 ng/mL. In the data set with Mus musculus [15], the inhibition entry is “Tde”. Moreover, the half-life (commonly the time needed for the level to fall by half in the phase considered) in data set [18] was 19.4 h. Moreover, in data set [19], the inhibition entry was “Active”. For the same compound, the IC50 (in general, the concentration that inhibits the measured activity by half) in data set [22] was found to be 25 nM; in data set [26], 18 nM. The Tmax – broadly, the time at which the peak concentration occurs – in [23] is 1.98 min. The inhibition in vivo at 20 mg/kg/day with GISTT1 [27] turned out to be 95.6%.
Turning to `CCN(CC)CCNC(=O)c1c(C)[nH]c(/C=C2\C(=O)Nc3ccc(F)cc32)c1C` [SUNITINIB], the inhibition entry in data set [28], in [29], in [30], in data set [31], in data set [32] and in data set [33] was “Active” in each case. The inhibition result in [34], in [35], in data set [36], in data set [37] and in data set [38] was “Active” in each case.
